Experimental data published in patent US11524004B2, “Analogs of proxisome proliferator activated receptor (PPAR) agonists and methods of using the same” (The University of Toledo, priority 2013, dated 2022).

Key:
[1] = system: Human bone marrow-derived mesenchymal stem cells (MSCs); assay: MSC osteogenesis assay: Alizarin Red S osteoblast mineralization, with concomitant assessment of fat cell formation; type: cell-based; details: for osteogenic formation from MSCs: MSCs in osteogenic medium, test agent at 1, 2, 4, 10 or 20 μM every 2nd day for 21 days, Alizarin Red S; for profile of fat (AD) versus osteogenic (OS) effects during dose progression (bone should predominate): dose progression 1-20 μM
Protocol: Human bone marrow-derived mesenchymal stem cells (MSCs) were taken through 2-3 passages and distributed across a 24 well plate at a density of 1×10^5 cells/cm^2. The plates were cultured in α-MEM with 20% FBS for 1 day at 37° C. On day 2 the medium was switched to osteogenic media (Stem X-Vivo, R&D System, Minneapolis, Minn.) containing 10% FBS plus 50 μg/ml ascorbic acid and 3 mM β-glycerol-phosphate. MSCs were cultured in the osteogenic medium without (vehicle negative control) or with test agents at 1, 2, 4, 10 or 20 μM supplied every 2nd day for 21 days. GW 0427 (standard PPAR ligand as positive control) was delivered by the same regimen on every plate to account for experimental variation.
Plates were washed twice with ice-cold PBS and incubated in 50 mM Tris-HCl (pH 7.6). The cells were treated with 2% Alizarin Red S (pH 4.2) for 10 min and then washed with distilled water. Stained cells were visualized by phase-contrast microscopy to determine cell morphology and to verify the presence of mineralized nodules (red images). The intensities of the images were assessed by Image-Pro Analyzer (Media Cybernetics, Inc., Bethesda, Md.).

SMILES | osteogenic formation from MSCs [1] | profile of fat (AD) versus osteogenic (OS) effects during dose progression (bone should predominate) ([1]; MSC assay) | other results
Cc1nc(-c2ccc(C(F)(F)F)c(F)c2)sc1COc1ccc(C=CC(=O)O)cc1 [JM-4-57, 4-[Oxo-[5-methylene-4-methyl-2-[3-fluoro-4-(trifluromethyl)phenyl]thiazole]]cinnamic Acid] | Increased osteogenic formation | – | concentration at which osteogenic activity peaks ([1]; MSCs, 21 days, doses 1-20 μM): 10 µM
Cc1nc(-c2ccc(C(F)(F)F)cc2)sc1CNc1ccc(C=CC(=O)O)cc1 [BK-4-03, 4-[N-[5-Methylene-4-methyl-2-[4-(trifluoromethyl)phenyl]thiazole]]aminocinnamic Acid] | Increased osteogenic formation | – | –
Cc1nc(-c2ccc(C(F)(F)F)c(F)c2)sc1CNc1ccc(C=CC(=O)O)cc1 [BK-4-30, 4-[N-[5-methylene-4-methyl-2-[3-fluoro-4-(trifluoromethyl)phenyl]thiazole]]aminocinnamic Acid] | – | not as suitable | –
Cc1cc(SCc2sc(-c3ccc(C(F)(F)F)c(F)c3)nc2C)ccc1OCC(=O)O [GW0742, reference compound] | – | initially demonstrates such a preference | OS activity as dose range continued to 10 and 20 uM ([1]; MSC assay, 10 and 20 uM, estimated, averaged effects): decreased
Cc1nc(-c2ccc(C(F)(F)F)cc2)sc1CSc1ccc(C=CC(=O)O)cc1 [BK-4-04, 4-Thio-[5-methylene-4-methyl-2-[4-(trifluoromethyl)phenyl]thiazole]cinnamic Acid] | Increased osteogenic formation | – | –
Cc1nc(-c2ccc(C(F)(F)F)cc2)sc1CN(C)c1ccc(C=CC(=O)O)cc1 [BK-4-15, 4-[N-Methyl-N-[5-methylene-4-methyl-2-[4-(trifluoromethyl)phenyl]thiazole]]aminocinnamic Acid] | Increased osteogenic formation | most preferred profile | –
Cc1nc(-c2ccccc2)sc1CCOc1ccc(C=CC(=O)O)cc1 [BK-3-51, 4-[[4-Methyl-2-phenylthiazol-5-yl]methyl]methoxycinnamic Acid] | – | – | melting point: 209 to 211 °C
